Legend:
[1] = tested on: Human lung cancer sections; test: Patient-derived ex-vivo tumor explant culture on tumor microenvironment platform; H&E and IHC for cleaved caspase 3, MICA/B and CD56; assay type: cell-based; conditions: cultured 72 hours in tumor microenvironment platform, IHC, FIG. 1
Method: The relevance of changes in the immune contexture of the tumor tissue culture microbed for a non-immunmodulatory agent, either as monotherapy or in combination with an immunomodulatory agent, was examined. Human lung cancer sections from the same patient cultured for 72 hours in the tumor microenvironment platform with gefitinib (a small molecule kinase inhibitor) alone, osimertinib (another small molecule kinase inhibitor)+Pembrolizumab, or vehicle control were assayed for H&E staining and cleaved caspase 3, MICA/B (cell surface ligands that bind immunoreceptors present on natural killer (NK) cells), and CD56 (marker of NK cells) expression.

[2] = tested on: gastrointestinal stromal tumor; test: M-score (sensitivity index) from tumor-associated marker assays on tumor tissue culture; assay type: cell-based, human; conditions: Patient 1, gastrointestinal stromal tumor
Method: The tumor tissue cultures were also evaluated using standard assays for tumor proliferation, tumor cell death, tumor morphology, and tumor cell viability as previously described, including tetrazolium salt WST-1 viability assay; LDH release; ATP uptake; glucose uptake; Caspase 3, Caspase 8, and Ki67 expression; and H&E staining. The results of the assays for tumor-associated markers were used to generate assessment scores that were input into a machine-trained algorithm to generate a clinical outcome predictor in the form of an “M-score” for each patient.
M-score based on tumor-associated markers was determined for each of the tissue pairs as previously described.
(§1) The M-score based on tumor-associated markers and tumor:stroma ratio of CD56+ cells in tumor tissue cultures under control conditions or under pressure from treatment with anticancer drug regimens was determined as described above for 3 different patients whose clinical outcome in response to the respective treatment was known.

[3] = tested on: gastrointestinal stromal tumor; test: CD56+ NK cell tumor:stroma ratio by IHC in tumor tissue culture; assay type: cell-based, human; conditions: Patient 1, gastrointestinal stromal tumor; control ratio 3
Method: The spatial heterogeneity of CD56+ lymphocytes (NK) in areas of tumor vs stroma in pairs of tissues (for control and treatment conditions) from each of a number of patients cultured in the tumor microenvironment platform and treated with various conventional and immuno-modulatory therapies was investigated. IHC analysis for CD56+ cells in slices of tissues under treatment and control conditions was performed, and the number of CD56+ cells in tumor and stromal regions was determined (FIG. 2A). M-score based on tumor-associated markers was determined for each of the tissue pairs as previously described. The ratio of CD56+ cells in areas of tumor cells vs areas of stroma in untreated and drug pressure conditions from the tissue pairs was calculated (FIG. 2B), and the fold change from vehicle to treatment conditions for each pair was determined and binned by M-score >25 and M-score ≤25 (FIG. 2C).
The predictive power of the change in spatial heterogeneity of CD56+NK cells in areas of tumor vs stroma under pressure from treatment with anticancer drug regimens was evaluated. […]

[4] = tested on: gastrointestinal stromal tumor; test: Known clinical outcome of the patient in response to the treatment; assay type: in vivo, human; conditions: Patient 1, gastrointestinal stromal tumor
Method: as §1

| Cleaved caspase 3 expression ([1]; vs vehicle control) | Structure (SMILES) | infiltration of NK cells (CD56) ([1]; vs vehicle-treated) | tumor cell MICA/B expression ([1]; vs vehicle-treated) | M-score [2] | M-score prediction [2] | Treatment CD56+ tumor:stroma ratio [3] | Clinical response [4] |
| --- | --- | --- | --- | --- | --- | --- | --- |
| significantly increased | COc1cc2ncnc(Nc3ccc(F)c(Cl)c3)c2cc1OCCCN1CCOCC1 [gefitinib] | increase | increase | – | – | – | – |
| – | CC[C@@]1(O)C(=O)OCc2c1cc1n(c2=O)Cc2cc3c(CN(C)C)c(O)ccc3nc2-1 [topotecan] | – | – | (M-score = 36) | Responder | 5 | Responder |
